Data on one molecule can be found in patent publication US4113957A, “1-Substituted pyrazoles” (Bayer Aktiengesellschaft, priority 1975, dated 1978).

The test system of the assay is venous thrombs (left jugular vein). As to the kind of experiment: Antithrombotic action: thromb formation in supercooled jugular vein of rats. Format: in vivo. Particulars: Rattus norvegicus, po, 10 mg/kg orally, reduction of thromb size vs control, after 4 hours. Here is the method:
The left jugular vein of rats weighing 170 to 180 g was exposed under ether narcosis and supercooled to -12° C. for 2 minutes to stimulate thromb formation. The thromb was isolated from the vein 4 hours later, and was weighed. The test animals were given the test preparation in tragacanth mucilage immediately before supercooling the wall of the blood vessel. As a result, the protective antithrombotic activity was tested in the first 4 hours after stimulating thromb formation.

The inhibition is the relative decrease from the control value, in per cent. On to `Cc1cc(OC(=O)c2ccco2)n(CCOc2ccc3ccccc3c2)n1` [Example 20, 5-(Furyl-(2)-carbonyloxy)-3-methyl-1-(2-(β-naphthyloxy)-ethyl)-pyrazole], for which at 10 mg/kg the inhibition was 61%.
